Measurements reported in publication PMC9920254 (Molecules, 2023).
“And” between values parts separate entries of the source, which are not always exact repeats. Equal values may be shown once. Read-outs that look alike come from different tables or passages of the source.

Key:
[1] = Metabolite profiling of PND in rat bile, urine, feces and plasma by UHPLC–HRMS; format: in vivo; details: feces
Experimental: Rats, three animals in each group, were randomly selected and treated with PND orally (3.5 mg/kg) or intravenously (0.35 mg/kg). Blood samples were collected into heparinized tubes by retro-orbital bleeding via capillary tubes under isoflurane anesthesia at 0.33, 3 and 8 h after oral administration and at 0.25, 4 and 8 h after intravenous injection. Plasma was separated by centrifuging the blood samples at 3000 rpm for 10 min. Rats were individually housed in metabolic cages (Tecniplast, Buguggiate, Italia) for collecting urine and feces samples. Additionally, the bile duct of rats under anesthesia with chloral hydrate (10% w/v) were cannulated with a S2-RBDC cannula (Skillsmodel, Beijing) for collecting bile. Urine and feces as well as bile samples were collected pre-dosing and at the following intervals postdosing: 0–2, 2–4, 4–6, 6–8, 8–10, 10–12 (0–12 for feces sample), 12–24, 24–36, 36–48 and 48–72 h. Bile and urine volume was recorded. Feces samples were freeze-dried, weighed, powered, added with water (9 mL/g) and homogenized. All samples were stored at −40 °C until analysis.
Identification analysis of metabolites in bio-samples was performed as described previously using a Dionex Ultimate 3000 UHPLC system combined with a Q-Exactive Focus Orbitrap mass spectrometer (Thermo Fischer Scientific, MA, USA) fitted with a CORTECS T3 column (2.1 × 150 mm, 2.7 μm; Waters, MA, USA). […]

[2] = Pharmacokinetic profile of PND in rats with or without ibrutinib (UGTs inhibitor) pretreatment; format: in vivo, rat; details: for Cmax / Tmax: 3.5 mg/kg; for MRT inf: n = 3, read-out: MRT0-∞
Experimental: Ibrutinib, a broad inhibitor of UGTs, was used to block the metabolism of PND via UGTs. PND and ibrutinib were formulated in PEG 300-water (70%: 30%, v/v) and DMSO-Cremophor EL-water (10%: 30%: 60%, v/v/v), respectively. Rats were pretreated through intraperitoneal (i.p.) injection of ibrutinib (100 mg/kg) or vehicle (three rats per group). After 0.5 h, PND (3.5 mg/kg) were administrated via gavage. Then blood samples were taken into heparinized tubes for separating plasma. Time points included before dosing, at 5, 20 and 45 min and 1.25, 2, 3, 4, 6, 8, 12, 24 and 48 h after dosing. Plasma was separated by centrifuging the blood samples at 3000 rpm for 10 min and then stored at −40 °C until analysis. The plasma samples were analyzed using the reported LC–MS/MS method as described in our previous study.
Figures and statistics were plotted and calculated using GraphPad Prism (version 8.4.3) and Microsoft Excel (version 2019). Metabolic pathways were illustrated with ChemBioDraw Ultra (version 13.0). Pharmacokinetic parameters were estimated using non-compartmental methods (WinNonlin version 2.0, Pharsight Co., Certara, NJ, USA). All pharmacokinetic parameters were given as the mean ± standard deviation. All statistical analyses were performed using SAS (version 9.4; SAS Institute Inc., Cary, NC, USA). A p value < 0.05 was considered statistically significant.

[3] = rat bile, after 72 h of administration via gavage (3.5 mg/kg) and injection (0.35 mg/kg)
[4] = rat LMs
[5] = mouse LMs
[6] = human LMs
CYPs (rat LMs) = details: rat LMs (RLM)
CYPs (mouse LMs) = details: mouse LMs (MLM)
CYPs (human LMs) = details: human LMs (HLM)
UGTs (rat LMs) = details: rat LMs (RLM)
UGTs (mouse LMs) = details: mouse LMs (MLM)
UGTs (human LMs) = details: human LMs (HLM)
IAV = system: IAV; set-up: method as in PMID 32520560; details: mice, oral dosing; superior to oseltamivir; cited from earlier work
[7] = set-up: method as in PMID 32520560; details: cited from earlier work
CYPs [8] = experiment: in vitro; details: rat, pH 7.4
CYPs [9] = experiment: in vitro; details: mouse, pH 7.4
CYPs [10] = experiment: in vitro; details: human, pH 7.4
[11] = PND i.g 3.5 mg/kg, ibrutinib i.p. 100 mg/kg versus control
[12] = rat, plasma, oral, PND i.g 3.5 mg/kg after i.p. Ibrutinib (100 mg/kg) pretreatment, Mean ± SD, n = 3
[13] = rat, plasma, po, PND i.g 3.5 mg/kg, Control, Mean ± SD, n = 3

CC(=O)c1cc(C)c(O)c(Cc2[nH]c3ccccc3c2Cc2c(O)c(C)cc(C(C)=O)c2O)c1O [PND, Penindolone]
Detection of PND (M0) in bio-samples [1]: detected in all bio-samples | CLz ([2]; PND i.g 3.5 mg/kg, Control, Mean ± SD, n = 3): 0.88 ± 0.22 L/h/kg | Elevation of Cmax of PND after pretreatment with ibrutinib [2, 11]: 18.78% | Increase of AUC0–∞ of PND after combination with ibrutinib [2, 11]: 30.56% | Cmax ([2]; rat, plasma, oral, PND i.g 3.5 mg/kg after i.p. Ibrutinib (100 mg/kg) pretreatment, Mean ± SD, n = 3, read-out: Cmax-1): 272 ± 36.9 ng/mL | Tmax ([2]; rat, plasma, oral, PND i.g 3.5 mg/kg after i.p. Ibrutinib (100 mg/kg) pretreatment, Mean ± SD, n = 3, read-out: Tmax-1): 28.2 ± 14.4 min | AUC(0-inf) [2, 12]: 5450 ± 2690 ng·h/mL | Vd [2, 12]: 15.6 ± 6.42 L/kg | half-life [2, 12]: 949 ± 589 min | clearance ([2]; rat, plasma, oral, PND i.g 3.5 mg/kg after i.p. Ibrutinib (100 mg/kg) pretreatment, Mean ± SD, n = 3, read-out: CLz (converted)): 13.5 mL/min/kg | MRT inf ([2]; rat, plasma, oral, PND i.g 3.5 mg/kg after i.p. Ibrutinib (100 mg/kg) pretreatment, Mean ± SD): 23.9 ± 12.7 h | Cmax ([2]; rat, plasma, po, PND i.g 3.5 mg/kg, Control, Mean ± SD, n = 3, read-out: Cmax-1): 229 ± 128 ng/mL | Cmax ([2]; rat, plasma, po, PND i.g 3.5 mg/kg, Control, Mean ± SD, n = 3, read-out: Cmax-2): 197 ± 46.8 ng/mL | Tmax ([2]; rat, plasma, po, PND i.g 3.5 mg/kg, Control, Mean ± SD, n = 3, read-out: Tmax-1): 36.6 ± 14.4 min | Tmax ([2]; rat, plasma, po, PND i.g 3.5 mg/kg, Control, Mean ± SD, n = 3, read-out: Tmax-2): 360 min | AUC(0-inf) [2, 13]: 4180 ± 1190 ng·h/mL | half-life [2, 13]: 292 ± 18 min | MRT inf ([2]; rat, plasma, po, PND i.g 3.5 mg/kg, Control, Mean ± SD): 12.8 ± 0.22 h | Accumulation of PND in bile [3]: 2.68–3.35 % of dosing | PND metabolized in LMs in the presence of NADPH ([4]; NADPH, within 1 h, PND 2 µM): Approximately 96% | Prototype drug eliminated in the presence of UDPGA ([4]; UDPGA, PND 2 µM): more than 65% | Stability in LMs without co-factors ([4]; without NADPH or UDPGA): stable | PND metabolized in LMs in the presence of NADPH ([5]; NADPH, within 1 h, PND 2 µM): ~89% | Prototype drug eliminated in the presence of UDPGA ([5]; UDPGA, PND 2 µM): more than 65% | Stability in LMs without co-factors ([5]; without NADPH or UDPGA): stable | PND diminished in LM system in the presence of NADPH ([6]; NADPH, within 60 min, PND 2 µM): Less than 16% | Prototype drug eliminated in the presence of UDPGA ([6]; UDPGA, PND 2 µM): more than 65% | Stability in LMs without co-factors ([6]; without NADPH or UDPGA): stable | Clint (CYPs (rat LMs)): 0.073 µL/min | Vmax (CYPs (rat LMs)): 1.11 nmol/(min×mg Protein) | Clint (CYPs (mouse LMs)): 0.069 µL/min | Vmax (CYPs (mouse LMs)): 1.11 nmol/(min×mg Protein) | Clint (CYPs (human LMs)): 0.013 µL/min | Vmax (CYPs (human LMs)): 1.28 nmol/(min×mg Protein) | Clint (UGTs (rat LMs)): 0.030 µL/min | Km (UGTs (rat LMs)): 46.7 µM | Vmax (UGTs (rat LMs)): 1.38 nmol/(min×mg Protein) | Clint (UGTs (mouse LMs)): 0.198 µL/min | Km (UGTs (mouse LMs)): 31.6 µM | Vmax (UGTs (mouse LMs)): 6 nmol/(min×mg Protein) and 6.25 nmol/(min×mg Protein) | Clint (UGTs (human LMs)): 0.089 µL/min | Km (UGTs (human LMs)): 23.4 µM | Vmax (UGTs (human LMs)): 2.08 nmol/(min×mg Protein) | Protection against IAV-induced death and weight loss (IAV): protect mice against IAV-induced death and weight loss | Bioavailability [7]: low | Km (CYPs [8]): 15.2 µM | Km (CYPs [9]): 16.1 µM | Km (CYPs [10]): 97.7 µM
